The record followed here is ChEMBL document CHEMBL6103670, “Development of Ethyl-Hydrazide-Based Selective Histone Deacetylase 6 (HDAC6) PROTACs” (ACS Med Chem Lett, 2025).

Some results are limits rather than exact numbers.

Series [1] in a line: Antiproliferative activity against human MM1.S cells assessed as cell viability at 50 uM incubated for 72 hrs by CellTiter-Glo assay relative to control. It is filed as toxicity, cell-based. The settings on record: read-out: Activity. Background: Cellular ATP, detected with luciferase, serves as a proxy for viable cell number.
Series [2] concerns the target Histone deacetylase 3/Nuclear receptor corepressor 2 (HDAC3/NCoR2) (Homo sapiens, UniProt O15379). Nature of the series: Inhibition of C-terminal His tagged human recombinant HDAC3 (1 to 428 end residues)/N-terminal GST-tagged human NcoR2 expressed in Sf9 insect cells using Z-Lys(Ac)-AMC as substrate preincubated for 60 mins followed by substrate addition and measured after 90 mins by fluorescence based microplate reader analysis.

Series [3] is described as follows: Antiproliferative activity against human MM1.S cells assessed as cell viability incubated for 72 hrs by CellTiter-Glo assay. It is filed as toxicity, cell-based.
Series [4] concerns MM1.S. Nature of the series: Induction of degradation of HDAC6 in human MM1.S cells at 0.5 uM incubated for 24 hrs by immunoblot analysis relative to control. It is filed as cell-based.

Sequence of Histone deacetylase 3/Nuclear receptor corepressor 2 (HDAC3/NCoR2) (O15379 whole entry): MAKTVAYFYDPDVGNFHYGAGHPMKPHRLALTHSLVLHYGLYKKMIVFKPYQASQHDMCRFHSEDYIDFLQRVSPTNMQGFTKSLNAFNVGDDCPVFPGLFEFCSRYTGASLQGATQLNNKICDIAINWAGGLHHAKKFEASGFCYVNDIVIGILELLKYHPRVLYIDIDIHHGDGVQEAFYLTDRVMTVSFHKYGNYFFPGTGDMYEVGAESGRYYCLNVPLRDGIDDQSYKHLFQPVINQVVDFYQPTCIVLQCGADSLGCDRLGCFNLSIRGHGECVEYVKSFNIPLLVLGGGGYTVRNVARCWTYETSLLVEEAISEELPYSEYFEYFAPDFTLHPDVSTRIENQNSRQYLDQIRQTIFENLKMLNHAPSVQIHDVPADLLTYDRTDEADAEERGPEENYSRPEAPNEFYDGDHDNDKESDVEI
Sequence of Histone deacetylase 3/Nuclear receptor corepressor 2 (HDAC3/NCoR2) (Q9Y618 whole entry, further chain): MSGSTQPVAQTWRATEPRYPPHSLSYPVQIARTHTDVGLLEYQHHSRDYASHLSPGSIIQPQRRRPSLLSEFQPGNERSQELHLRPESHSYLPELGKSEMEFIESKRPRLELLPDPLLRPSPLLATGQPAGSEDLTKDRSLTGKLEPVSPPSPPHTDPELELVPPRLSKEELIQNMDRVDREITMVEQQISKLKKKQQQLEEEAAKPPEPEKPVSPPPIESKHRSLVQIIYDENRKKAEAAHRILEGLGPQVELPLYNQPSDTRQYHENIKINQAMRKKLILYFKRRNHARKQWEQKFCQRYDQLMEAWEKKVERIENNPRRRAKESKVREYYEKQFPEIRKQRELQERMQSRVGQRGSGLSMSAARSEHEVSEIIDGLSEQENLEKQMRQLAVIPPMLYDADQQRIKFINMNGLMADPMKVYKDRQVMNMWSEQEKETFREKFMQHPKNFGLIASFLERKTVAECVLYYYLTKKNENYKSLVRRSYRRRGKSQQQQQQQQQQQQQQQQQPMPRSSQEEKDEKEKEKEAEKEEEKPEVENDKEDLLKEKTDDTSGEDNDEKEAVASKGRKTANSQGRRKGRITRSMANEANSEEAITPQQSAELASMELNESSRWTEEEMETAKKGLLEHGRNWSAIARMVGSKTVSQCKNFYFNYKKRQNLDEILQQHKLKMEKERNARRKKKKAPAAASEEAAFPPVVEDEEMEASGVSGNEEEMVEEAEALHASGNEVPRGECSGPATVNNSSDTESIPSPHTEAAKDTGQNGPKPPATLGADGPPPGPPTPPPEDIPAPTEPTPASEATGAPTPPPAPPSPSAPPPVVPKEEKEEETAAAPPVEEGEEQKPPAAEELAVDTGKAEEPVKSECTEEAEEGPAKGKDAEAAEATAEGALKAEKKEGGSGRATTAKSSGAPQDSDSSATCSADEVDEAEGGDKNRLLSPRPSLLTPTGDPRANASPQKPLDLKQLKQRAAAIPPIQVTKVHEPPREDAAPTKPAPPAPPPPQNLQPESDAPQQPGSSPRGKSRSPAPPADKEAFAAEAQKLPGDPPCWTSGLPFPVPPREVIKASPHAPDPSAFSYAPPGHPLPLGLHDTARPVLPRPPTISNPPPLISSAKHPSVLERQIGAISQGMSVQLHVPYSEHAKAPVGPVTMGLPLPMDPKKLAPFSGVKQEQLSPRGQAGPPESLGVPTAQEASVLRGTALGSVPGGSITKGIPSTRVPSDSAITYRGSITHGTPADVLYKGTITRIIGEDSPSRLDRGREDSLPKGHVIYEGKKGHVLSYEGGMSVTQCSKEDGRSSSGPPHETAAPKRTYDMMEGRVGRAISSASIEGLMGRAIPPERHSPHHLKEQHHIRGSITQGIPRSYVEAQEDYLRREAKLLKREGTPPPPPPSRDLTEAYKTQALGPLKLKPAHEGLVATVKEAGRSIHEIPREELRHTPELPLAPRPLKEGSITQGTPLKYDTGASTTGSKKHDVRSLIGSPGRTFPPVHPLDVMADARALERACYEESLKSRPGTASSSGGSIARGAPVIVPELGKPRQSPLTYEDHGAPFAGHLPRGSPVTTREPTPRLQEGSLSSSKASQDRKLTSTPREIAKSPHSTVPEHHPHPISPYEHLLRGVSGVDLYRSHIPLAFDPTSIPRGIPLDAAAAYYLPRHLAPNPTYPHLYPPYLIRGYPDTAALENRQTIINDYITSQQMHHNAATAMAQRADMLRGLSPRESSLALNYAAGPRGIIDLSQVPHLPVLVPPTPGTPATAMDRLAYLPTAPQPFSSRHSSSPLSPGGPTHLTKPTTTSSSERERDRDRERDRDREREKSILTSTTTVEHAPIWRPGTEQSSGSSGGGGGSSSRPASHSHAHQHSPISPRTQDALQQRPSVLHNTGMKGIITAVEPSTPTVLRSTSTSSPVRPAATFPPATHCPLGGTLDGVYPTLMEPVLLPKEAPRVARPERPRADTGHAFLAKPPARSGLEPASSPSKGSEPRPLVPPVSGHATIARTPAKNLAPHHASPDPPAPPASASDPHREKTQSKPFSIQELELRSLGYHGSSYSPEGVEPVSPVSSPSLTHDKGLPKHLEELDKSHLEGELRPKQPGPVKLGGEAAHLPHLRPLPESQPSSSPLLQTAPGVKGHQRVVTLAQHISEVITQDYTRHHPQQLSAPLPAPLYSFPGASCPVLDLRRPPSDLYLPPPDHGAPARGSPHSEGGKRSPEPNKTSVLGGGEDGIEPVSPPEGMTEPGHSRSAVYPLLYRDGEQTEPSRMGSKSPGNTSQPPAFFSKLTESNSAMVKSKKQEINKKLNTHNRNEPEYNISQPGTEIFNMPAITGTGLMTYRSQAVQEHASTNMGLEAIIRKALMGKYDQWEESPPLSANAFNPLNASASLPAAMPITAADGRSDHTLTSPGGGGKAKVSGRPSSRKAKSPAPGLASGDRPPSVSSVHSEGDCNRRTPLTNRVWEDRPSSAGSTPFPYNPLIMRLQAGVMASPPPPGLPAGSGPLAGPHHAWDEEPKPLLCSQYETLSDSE

The term IC50 denotes the concentration needed to halve the response being measured. Regarding `CCNNC(=O)c1ccc(CNC(=O)c2ccc(OCc3cn(CCCCCC(=O)N[C@H](C(=O)N4C[C@H](O)C[C@H]4C(=O)NCc4ccc(-c5scnc5C)cc4)C(C)(C)C)nn3)cc2)cc1`, the viability at 72 h, 50 µM in series [1] was more than 50%. Also, the IC50 in series [2] was 417 nM.

Take `CCNNC(=O)c1ccc(CNC(=O)c2ccc(OCc3cn(CCOCCC(=O)N[C@H](C(=O)N4C[C@H](O)C[C@H]4C(=O)NCc4ccc(-c5scnc5C)cc4)C(C)(C)C)nn3)cc2)cc1`: the viability at 72 h, 50 µM in series [1] is more than 50%. In addition, the IC50 in series [2] was 244 nM.

For the compound `CCNNC(=O)c1ccc(CNC(=O)c2ccc(NC(=O)CCCCCCCNc3cc4c(cc3F)C(=O)N(C3CCC(=O)NC3=O)C4=O)cc2)cc1` (configuration not stated), the IC50 at 72 h in series [3] is 18400 nM. In addition, the IC50 in series [2] turned out to be 238 nM.

In the case of `O=C(CCCCCCNC(=O)c1ccc(NC(=O)CCCCCCCNC(=O)COc2cccc3c2C(=O)N(C2CCC(=O)NC2=O)C3=O)cc1)NO` (configuration not stated), in series [1], the viability at 72 h, 50 µM is more than 50%. In series [4], this compound showed an Activity of 94.5%. Also, the IC50 in series [2] amounted to 164 nM.

Consider `CCNNC(=O)c1ccc(CNC(=O)c2ccc(OCc3cn(CCCCCCNc4cc5c(cc4F)C(=O)N(C4CCC(=O)NC4=O)C5=O)nn3)cc2)cc1` (configuration not stated), for which the viability at 72 h, 50 µM in series [1] was more than 50%. Further, the IC50 in series [2] was 611 nM.

For the compound `CCNNC(=O)c1ccc(CNC(=O)c2ccc(NC(=O)CCCCCCC(=O)N[C@H](C(=O)N3C[C@H](O)C[C@H]3C(=O)NCc3ccc(-c4scnc4C)cc3)C(C)(C)C)cc2)cc1`, the viability at 72 h, 50 µM in series [1] is more than 50%. In addition, the half-inhibitory concentration (IC50) in series [2] turned out to be 126 nM.

On to `O=C(CCCCCCC(=O)Nc1ccccc1)NO` [VORINOSTAT], for which the IC50 at 72 h in series [3] worked out at 800 nM.

In the case of `CCNNC(=O)c1ccc(CNC(=O)c2ccc(NC(=O)COCCOCCNc3cc4c(cc3F)C(=O)N(C3CCC(=O)NC3=O)C4=O)cc2)cc1` (configuration not stated), the viability at 72 h, 50 µM in series [1] was more than 50%. For the same compound, the IC50 in series [2] was 378 nM.

On to `CCNNC(=O)c1ccc(CNC(=O)c2ccc(NC(=O)COCCOCC(=O)N[C@H](C(=O)N3C[C@H](O)C[C@H]3C(=O)NCc3ccc(-c4scnc4C)cc3)C(C)(C)C)cc2)cc1`, for which the viability at 72 h, 50 µM in series [1] was more than 50%. Further, the concentration for half-maximal inhibition (IC50) in series [2] amounted to 729 nM.

As to `CCNNC(=O)c1ccc(CNC(=O)c2ccc(OCc3cn(CCCCCCNc4cc5c(cc4F)C(=O)N(C4CCC(=O)N(C)C4=O)C5=O)nn3)cc2)cc1` (configuration not stated), the viability at 72 h, 50 µM in series [1] was more than 50%. Further, the IC50 in series [2] was found to be 537 nM.

Take `CCNNC(=O)c1ccc(CNC(=O)c2ccc(OCc3cn(CCOCCNc4cc5c(cc4F)C(=O)N(C4CCC(=O)NC4=O)C5=O)nn3)cc2)cc1` (configuration not stated): in series [3], the IC50 at 72 h stood at 24900 nM. For the same compound, the IC50 in series [2] is 332 nM.
